Experimental findings from patent US8410144B2, “Substituted indolo-pyridinone compounds” (ArQule, Inc., priority 2009, dated 2013) are described below.

In one data set the test system is DLD-1. Put plainly: MTS assay, DLD-1 cells. The data set is classed as cell-based. The note with it: 72 hours; for inhibition at 10 µM: Homo sapiens, read-out: DLD-1, MTS cell kill % inhibition. How it is done:
(§1) Cells were maintained at 37° C., 5% CO2 in DMEM media supplemented with 1% fetal bovine serum, penicillin/streptomycin and fungizone (Invitrogen). Cells were seeded into 96-well tissue culture plates at 3000 per well and cultured at 37° C. for 18 hours. Test compounds were dissolved and diluted to 300× in DMSO then diluted 1:40 in DMEM. Cells were incubated with test compounds for 72 hours followed by incubation with tetrazolium compound (3-(4,5-dimethylthiazol-2-yl)-5-(3-carboxymethoxyphenyl)-2-(4-sulfophenyl)-2H-tetrazolium, inner salt; MTS) and the electron coupling reagent, phenazine methosulfate (PMS) for 4 hours. […] The ability of compounds to inhibit cell growth in this assay is correlated with the reduction of dehydrogenase enzyme activity found in metabolically active cells. The measurement of the absorbance of the formazan was assessed using an ENVISION™ (Perkin Elmer) microplate reader at 492 nm. The calculated IC50 value is the concentration of the test compound that causes a 50% decrease in the absorbance.

In the next data set the test system is KATO III. Put plainly: MTS assay, KATO III cells. The data set is classed as cell-based. To be noted: 72 hours; for inhibition at 10 µM: Homo sapiens, read-out: KATO III, MTS cell kill % inhibition. As for the experimental part:
as §1
(In general: Tetrazolium dyes change colour on reduction, which living cells bring about.)

The test system of another data set is MDA-MB-231. Description: MTS assay, MDA-MB-231 cells. Format: cell-based. The note with it: 72 hours; for inhibition at 10 µM: Homo sapiens, read-out: MDA-MB-231, MTS cell kill % inhibition. How it is done: as §1
Another data set relates to NCI-H1299. Description: MTS assay, NCI-H1299 cells. The data set is classed as cell-based. To be noted: 72 hours; for inhibition at 10 µM: Homo sapiens, read-out: NCI-H1299, MTS cell kill % inhibition. As for the experimental part:
as §1

The target of another data set is IGF-1R (Homo sapiens, UniProt P08069). Description: IGFR1 activity assay (ELISA). The data set is classed as biochemical. The note with it: for inhibition at 30 µM: read-out: IGF-1R, PCT INH (30 μM), ELISA. As for the experimental part: The disclosed compounds were assayed for their ability to inhibit insulin-like growth factor receptor-1 (IGFR1). Nunc Maxisorb plates were coated with streptavidin by overnight incubation with 100 μL per well of 1 μg/ml Streptavidin in DPBS. Prior to the start of the experiment, the plates were washed with TBST (3×200 μL) and blocked for at least 1 hour by adding 150 μL of 5% BSA/TBST. The plates were washed with TBST (3×200 μL/well) and left to dry immediately before the capture step.
IGF-1R, sequence (P08069 31-1367): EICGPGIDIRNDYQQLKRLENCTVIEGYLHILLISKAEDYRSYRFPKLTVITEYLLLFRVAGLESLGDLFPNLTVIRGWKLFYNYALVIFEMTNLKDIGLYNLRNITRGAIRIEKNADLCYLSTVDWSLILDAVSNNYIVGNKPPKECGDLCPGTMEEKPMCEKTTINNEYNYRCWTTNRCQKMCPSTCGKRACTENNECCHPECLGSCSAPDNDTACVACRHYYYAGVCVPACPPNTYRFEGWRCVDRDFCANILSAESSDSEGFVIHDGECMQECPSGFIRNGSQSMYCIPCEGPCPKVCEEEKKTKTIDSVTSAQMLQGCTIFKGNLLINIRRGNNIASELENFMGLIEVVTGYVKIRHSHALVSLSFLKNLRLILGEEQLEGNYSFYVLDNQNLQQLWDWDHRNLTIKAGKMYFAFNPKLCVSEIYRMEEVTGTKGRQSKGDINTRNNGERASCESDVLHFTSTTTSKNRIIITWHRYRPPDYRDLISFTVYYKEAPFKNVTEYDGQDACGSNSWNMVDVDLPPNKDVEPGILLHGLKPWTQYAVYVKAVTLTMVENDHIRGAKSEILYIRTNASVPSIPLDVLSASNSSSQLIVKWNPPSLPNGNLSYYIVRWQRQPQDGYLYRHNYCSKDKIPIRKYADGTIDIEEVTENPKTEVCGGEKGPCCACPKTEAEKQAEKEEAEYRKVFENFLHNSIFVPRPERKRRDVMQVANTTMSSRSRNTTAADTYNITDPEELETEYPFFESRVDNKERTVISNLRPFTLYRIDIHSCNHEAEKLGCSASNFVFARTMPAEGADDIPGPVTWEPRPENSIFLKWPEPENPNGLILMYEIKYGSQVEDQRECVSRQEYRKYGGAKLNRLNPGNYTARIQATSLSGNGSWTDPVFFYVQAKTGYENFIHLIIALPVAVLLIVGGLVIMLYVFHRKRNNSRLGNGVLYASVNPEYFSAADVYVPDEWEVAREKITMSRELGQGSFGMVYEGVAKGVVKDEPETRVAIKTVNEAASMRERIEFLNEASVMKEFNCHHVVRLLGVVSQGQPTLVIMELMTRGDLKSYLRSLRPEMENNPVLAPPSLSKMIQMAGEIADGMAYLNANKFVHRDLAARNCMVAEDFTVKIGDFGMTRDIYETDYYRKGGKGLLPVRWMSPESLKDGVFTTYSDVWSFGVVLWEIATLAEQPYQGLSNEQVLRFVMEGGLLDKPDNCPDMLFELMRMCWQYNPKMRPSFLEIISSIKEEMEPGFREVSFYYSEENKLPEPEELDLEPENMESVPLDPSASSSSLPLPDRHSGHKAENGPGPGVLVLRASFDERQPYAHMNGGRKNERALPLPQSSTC
The disclosed test articles and controls (Staurosporine) were prepared using the following assay buffer at 3× desired final concentration (50 mM Tris-HCl, 0.02 mg/ml BSA, 10 mM MgCl2, 0.1 mM Na3VO4, 1 mM EGTA, 12.5 μM ATP, 0.01% NP-40, 1 mM DTT in 10% glycerol/water). 20 μL of the test compounds (or control), 20 μL IGF1R (0.33 ng/μL final concentration), and 20 μL of Pyk-2 (0.05 ng/μL final concentration) were rapidly added to the reaction plate. The plate was incubated at room temperature for one hour.
50 μL was transferred from the reaction plate to the streptavidin coated plate. The capture plate was incubated at room temperature for 30 minutes, then washed with TBST three times. 100 μL/well of Cell Signaling anti-phospho tyrosine was added to the capture plate at a dilution of 1:3000 in 2% BSA/TBST. The plate was incubated for one hour at room temperature then washed 6× with TBST. 100 μL/well of alkaline phosphatase tagged goat anti mouse antibody was added to the capture plate at a dilution of 1:4000 in 2% BSA/TBST. The plate was incubated for one hour at room temperature then washed with TBST six times.
The fluorescent readout is initiated by the addition of 100 μL/well of Attophos reagent (6 mg/10 mL). The reading is done on the Perkin Elmer Envision system.
For orientation: ELISA stands for enzyme-linked immunosorbent assay.

What is called melting point is the temperature, or range, at which the solid turns liquid. Consider `O=c1[nH]cccc1-c1[nH]c2ccccc2c1C1CCN(S(=O)(=O)c2ccccc2)CC1` [Compound 86, 3-{3-[1-(phenylsulfonyl)piperidin-4-yl]-1H-indol-2-yl}pyridin-2(1H)-one], for which the melting point lay within 215 to 217 °C. Moreover, in the data set on DLD-1, the inhibition at 10 µM is less than 50%. The inhibition at 10 µM in the data set with KATO III was less than 50%. Moreover, the inhibition at 10 µM in the data set on MDA-MB-231 was less than 50%. Moreover, the inhibition at 10 µM in the data set on NCI-H1299 is less than 50%.
With `O=C(NCCCn1ccnc1)c1ccc2[nH]c(-c3ccc[nH]c3=O)c(-c3ccccc3)c2c1` [Compound 6, N-[3-(1H-imidazol-1-yl)propyl]-2-(2-oxo-1,2-dihydropyridin-3-yl)-3-phenyl-1H-indole-5-carboxamide], the melting point lay in the range of 153 to 157 °C. The inhibition at 10 µM in the data set with DLD-1 lay within 50 to 79%. For the same compound, the inhibition at 10 µM in the data set on KATO III lay in the range of 80 to 100%. In addition, in the data set with MDA-MB-231, the inhibition at 10 µM fell in the range of 50 to 79%. For the same compound, the inhibition at 10 µM in the data set on NCI-H1299 was 80 to 100%.
`CN(C)CCCN(C)C(=O)c1ccc2[nH]c(-c3ccc[nH]c3=O)c(-c3ccc(-c4ccccc4)cc3)c2c1` [Compound 46, 3-biphenyl-4-yl-N-[3-(dimethylamino)propyl]-N-methyl-2-(2-oxo-1,2-dihydropyridin-3-yl)-1H-indole-5-carboxamide]: the inhibition at 10 µM in the data set with DLD-1, in the data set with KATO III, with MDA-MB-231 and in the data set on NCI-H1299 was 80 to 100% each time. Besides, on IGF-1R, the inhibition at 30 µM lay in the range of 80 to 100%.
As for “3-biphenyl-4-yl-N-(2- chlorophenyl)-2-(2-oxo-1,2- dihydropyridin-3-yl)-1H- indole-5-carboxamide [Compound 35]”, in the data set on DLD-1 (10 μM), the “DLD-1, MTS cell kill % inhibition” value is reported as “C (C = <50% inhibition)”. In addition, the “KATO III, MTS cell kill % inhibition” value with KATO III (10 μM) is “C (C = <50% inhibition)”. The “MDA-MB-231, MTS cell kill % inhibition” value with MDA-MB-231 (10 μM) is reported as “C (C = <50% inhibition)”. Further, in the data set on NCI-H1299 (10 μM), the “NCI-H1299, MTS cell kill % inhibition” value was “C (C = <50% inhibition)”. Further, on IGF-1R, the “IGF-1R, PCT INH (30 μM), ELISA” value is listed as “C (C = <50% inhibition)”.
With `COc1ccc(-c2c(-c3ccc[nH]c3=O)[nH]c3ccc(C(=O)NCCCN4CCOCC4)cc23)cc1OC` [Compound 73, 3-(3,4-dimethoxyphenyl)-N-(3-morpholin-4-ylpropyl)-2-(2-oxo-1,2-dihydropyridin-3-yl)-1H-indole-5-carboxamide], the inhibition at 10 µM in the data set on DLD-1, in the data set on KATO III, in the data set on MDA-MB-231 and in the data set with NCI-H1299 was less than 50% in each case. For the same compound, the inhibition at 30 µM on IGF-1R lay within 80 to 100%.
Take `O=C(NCCCN1CCOCC1)c1ccc2[nH]c(-c3ccc[nH]c3=O)c(-c3ccc(Cl)cc3)c2c1` [Compound 69, 3-(4-chlorophenyl)-N-(3-morpholin-4-ylpropyl)-2-(2-oxo-1,2-dihydropyridin-3-yl)-1H-indole-5-carboxamide]: the inhibition at 10 µM with DLD-1 was less than 50%; in the data set on KATO III, less than 50%; with MDA-MB-231, 50 to 79%; with NCI-H1299 it was less than 50%. The inhibition at 30 µM at IGF-1R was 80 to 100%.
As to `CCOC(=O)N1CCN(C(=O)c2ccc3[nH]c(-c4ccc[nH]c4=O)c(-c4ccc(-c5ccccc5)cc4)c3c2)CC1` [Compound 44, ethyl 4-{[3-biphenyl-4-yl-2-(2-oxo-1,2-dihydropyridin-3-yl)-1H-indol-5-yl]carbonyl}piperazine-1-carboxylate], the inhibition at 10 µM with DLD-1 was 50 to 79%; in the data set on KATO III, 80 to 100%; in the data set on MDA-MB-231, 80 to 100%; with NCI-H1299, 80 to 100%. Moreover, the inhibition at 30 µM at IGF-1R lay within 50 to 79%.
For the compound `O=C(Nc1ccc(F)cc1Cl)c1ccc2[nH]c(-c3ccc[nH]c3=O)c(-c3ccccc3)c2c1` [Compound 18, N-(2-chloro-4-fluorophenyl)-2-(2-oxo-1,2-dihydropyridin-3-yl)-3-phenyl-1H-indole-5-carboxamide], the inhibition at 10 µM is 50 to 79% in the data set with DLD-1, 50 to 79% in the data set with KATO III, less than 50% in the data set with MDA-MB-231 and 80 to 100% in the data set on NCI-H1299. Further, at IGF-1R, the inhibition at 30 µM is less than 50%.
As to `O=C(NCCCN1CCOCC1)c1cc2c3c(c1)c(-c1ccccc1)c(-c1ccc[nH]c1=O)n3CCC2` [Compound 7, N-(3-morpholin-4-ylpropyl)-2-(2-oxo-1,2-dihydropyridin-3-yl)-1-phenyl-5,6-dihydro-4H-pyrrolo[3,2,1-ij]quinoline-8-carboxamide], the melting point is 151 to 158 °C. Besides, the inhibition at 10 µM in the data set with DLD-1 is less than 50%. In addition, the inhibition at 10 µM in the data set on KATO III is less than 50%. In addition, the inhibition at 10 µM in the data set with MDA-MB-231 was less than 50%.
For `O=C(NCc1ccccc1)c1ccc2[nH]c(-c3ccc[nH]c3=O)c(-c3ccc(-c4ccccc4)cc3)c2c1` [Compound 40, N-benzyl-3-biphenyl-4-yl-2-(2-oxo-1,2-dihydropyridin-3-yl)-1H-indole-5-carboxamide], the inhibition at 10 µM with DLD-1 is less than 50%; with KATO III, less than 50%; in the data set on MDA-MB-231 it was less than 50%; in the data set on NCI-H1299, 50 to 79%. Also, at IGF-1R, the inhibition at 30 µM was less than 50%.
Compound `O=c1[nH]cccc1-c1[nH]c2ccccc2c1C1CCN(Cc2ccccc2)CC1` [Compound 85, 3-[3-(1-benzylpiperidin-4-yl)-1H-indol-2-yl]pyridin-2(1H)-one] had a melting point of 135 to 139 °C. The inhibition at 10 µM in the data set on DLD-1 is less than 50%. The inhibition at 10 µM in the data set with KATO III is less than 50%. For the same compound, the inhibition at 10 µM in the data set with MDA-MB-231 is less than 50%.
For the compound `CN(C(=O)c1ccc2[nH]c(-c3ccc[nH]c3=O)c(-c3ccccc3)c2c1)c1ccc(F)cc1` [Compound 20, N-(4-fluorophenyl)-N-methyl-2-(2-oxo-1,2-dihydropyridin-3-yl)-3-phenyl-1H-indole-5-carboxamide], the inhibition at 10 µM with DLD-1, in the data set on KATO III, in the data set with MDA-MB-231 and in the data set on NCI-H1299 was 80 to 100% throughout. Further, on IGF-1R, the inhibition at 30 µM lay in the range of 80 to 100%.
Consider `COCC(C)NC(=O)c1ccc2[nH]c(-c3ccc[nH]c3=O)c(-c3ccccc3)c2c1` (stereo not drawn) [Compound 11, N-(2-methoxy-1-methylethyl)-2-(2-oxo-1,2-dihydropyridin-3-yl)-3-phenyl-1H-indole-5-carboxamide], for which the inhibition at 10 µM is 50 to 79% in the data set on DLD-1, 80 to 100% in the data set with KATO III, less than 50% in the data set with MDA-MB-231 and 50 to 79% in the data set on NCI-H1299. In addition, the inhibition at 30 µM on IGF-1R lay in the range of 80 to 100%.
On to `Cc1ccc(-c2c(-c3ccc[nH]c3=O)[nH]c3ccc(C(=O)NCCCN4CCOCC4)cc23)cc1F` [Compound 67, 3-(3-fluoro-4-methylphenyl)-N-(3-morpholin-4-ylpropyl)-2-(2-oxo-1,2-dihydropyridin-3-yl)-1H-indole-5-carboxamide], for which the inhibition at 10 µM with DLD-1 was 50 to 79%; with KATO III, 80 to 100%; in the data set with MDA-MB-231, 50 to 79%; with NCI-H1299, 80 to 100%. Moreover, the inhibition at 30 µM on IGF-1R was 80 to 100%.
On to `COc1cccc(CCNC(=O)c2ccc3[nH]c(-c4ccc[nH]c4=O)c(-c4ccccc4)c3c2)c1OC` [Compound 19, N-[2-(2,3-dimethoxyphenyl)ethyl]-2-(2-oxo-1,2-dihydropyridin-3-yl)-3-phenyl-1H-indole-5-carboxamide], for which the inhibition at 10 µM in the data set with DLD-1, in the data set with KATO III, with MDA-MB-231 and in the data set with NCI-H1299 was 80 to 100% each time. Also, on IGF-1R, the inhibition at 30 µM is 80 to 100%.
As for `COc1ccc(C(C)C)cc1-c1c(-c2ccc[nH]c2=O)[nH]c2ccc(C(=O)NCCCN3CCOCC3)cc12` [Compound 64, 3-(5-isopropyl-2-methoxyphenyl)-N-(3-morpholin-4-ylpropyl)-2-(2-oxo-1,2-dihydropyridin-3-yl)-1H-indole-5-carboxamide], the inhibition at 10 µM in the data set with DLD-1, with KATO III, with MDA-MB-231 and in the data set with NCI-H1299 was less than 50% in each case. Also, on IGF-1R, the inhibition at 30 µM is 80 to 100%.
